pIC50: −log10 of the molar value.
How the values were obtained:
Type in all cases: biochemical
NSD2 = biological target: T1, NSD2 (Homo sapiens, UniProt O96028); assay: HMT panel selectivity: NSD2
T1 sequence (O96028 1-1365): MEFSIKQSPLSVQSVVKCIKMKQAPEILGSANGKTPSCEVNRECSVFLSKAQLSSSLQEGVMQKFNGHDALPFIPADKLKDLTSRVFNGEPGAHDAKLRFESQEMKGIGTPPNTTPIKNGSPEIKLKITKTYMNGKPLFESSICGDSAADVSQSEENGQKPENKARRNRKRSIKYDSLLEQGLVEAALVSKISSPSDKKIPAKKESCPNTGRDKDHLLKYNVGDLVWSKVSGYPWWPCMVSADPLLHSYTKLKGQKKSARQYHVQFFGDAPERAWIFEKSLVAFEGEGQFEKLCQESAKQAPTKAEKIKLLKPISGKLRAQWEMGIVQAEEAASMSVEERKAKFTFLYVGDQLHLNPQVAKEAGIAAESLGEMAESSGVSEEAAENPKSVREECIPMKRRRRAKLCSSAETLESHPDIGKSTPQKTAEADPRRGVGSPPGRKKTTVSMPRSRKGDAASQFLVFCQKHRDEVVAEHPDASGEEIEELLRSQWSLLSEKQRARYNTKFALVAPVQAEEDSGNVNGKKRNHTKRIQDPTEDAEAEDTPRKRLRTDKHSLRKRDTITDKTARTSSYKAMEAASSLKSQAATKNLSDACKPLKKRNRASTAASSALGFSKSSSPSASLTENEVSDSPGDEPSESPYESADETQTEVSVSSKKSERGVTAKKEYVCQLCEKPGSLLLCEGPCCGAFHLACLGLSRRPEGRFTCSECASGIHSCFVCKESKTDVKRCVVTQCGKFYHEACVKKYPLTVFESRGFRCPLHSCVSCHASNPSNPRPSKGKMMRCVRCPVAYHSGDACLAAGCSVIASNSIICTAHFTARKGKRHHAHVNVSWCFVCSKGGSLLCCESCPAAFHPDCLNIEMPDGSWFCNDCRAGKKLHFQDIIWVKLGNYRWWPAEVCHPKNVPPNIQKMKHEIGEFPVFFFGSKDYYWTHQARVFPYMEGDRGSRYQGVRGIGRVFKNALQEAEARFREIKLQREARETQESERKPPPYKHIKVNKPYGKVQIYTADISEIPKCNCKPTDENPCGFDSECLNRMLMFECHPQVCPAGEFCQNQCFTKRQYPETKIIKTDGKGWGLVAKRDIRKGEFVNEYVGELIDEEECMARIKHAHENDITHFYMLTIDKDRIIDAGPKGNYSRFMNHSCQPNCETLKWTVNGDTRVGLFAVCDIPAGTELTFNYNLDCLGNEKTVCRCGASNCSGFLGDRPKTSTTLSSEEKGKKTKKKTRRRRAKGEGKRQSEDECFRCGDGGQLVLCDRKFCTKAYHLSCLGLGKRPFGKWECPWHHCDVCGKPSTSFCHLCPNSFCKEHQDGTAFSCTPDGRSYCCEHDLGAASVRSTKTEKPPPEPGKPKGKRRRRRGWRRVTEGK
Description: (§1) Note: for EZH2, EZH2/EED/SUZ12/RBAP48/AEBP2 was used in the assay; for EZH1, EZH1/EED/SUZ12/RBAP48/AEBP2 was used in the assay; for MLL, MLL/WDR5/RBBP5/ASH2L/ was use in the assay. a, H3K27me0 peptide was used as substrate for both EZH2 and EZH1 activity; b, H3K27me1 peptide was used as substrate for both EZH2 and EZH1 activity. All HMT reactions were performed as described previously. ref: Proc Natl Acad Sci U S A. 2012 Dec 26;109(52):21360-5.

NSD3 = biological target: T2, NSD3 (Homo sapiens, UniProt Q9BZ95); assay: HMT panel selectivity: NSD3
T2 sequence (Q9BZ95 1-1437): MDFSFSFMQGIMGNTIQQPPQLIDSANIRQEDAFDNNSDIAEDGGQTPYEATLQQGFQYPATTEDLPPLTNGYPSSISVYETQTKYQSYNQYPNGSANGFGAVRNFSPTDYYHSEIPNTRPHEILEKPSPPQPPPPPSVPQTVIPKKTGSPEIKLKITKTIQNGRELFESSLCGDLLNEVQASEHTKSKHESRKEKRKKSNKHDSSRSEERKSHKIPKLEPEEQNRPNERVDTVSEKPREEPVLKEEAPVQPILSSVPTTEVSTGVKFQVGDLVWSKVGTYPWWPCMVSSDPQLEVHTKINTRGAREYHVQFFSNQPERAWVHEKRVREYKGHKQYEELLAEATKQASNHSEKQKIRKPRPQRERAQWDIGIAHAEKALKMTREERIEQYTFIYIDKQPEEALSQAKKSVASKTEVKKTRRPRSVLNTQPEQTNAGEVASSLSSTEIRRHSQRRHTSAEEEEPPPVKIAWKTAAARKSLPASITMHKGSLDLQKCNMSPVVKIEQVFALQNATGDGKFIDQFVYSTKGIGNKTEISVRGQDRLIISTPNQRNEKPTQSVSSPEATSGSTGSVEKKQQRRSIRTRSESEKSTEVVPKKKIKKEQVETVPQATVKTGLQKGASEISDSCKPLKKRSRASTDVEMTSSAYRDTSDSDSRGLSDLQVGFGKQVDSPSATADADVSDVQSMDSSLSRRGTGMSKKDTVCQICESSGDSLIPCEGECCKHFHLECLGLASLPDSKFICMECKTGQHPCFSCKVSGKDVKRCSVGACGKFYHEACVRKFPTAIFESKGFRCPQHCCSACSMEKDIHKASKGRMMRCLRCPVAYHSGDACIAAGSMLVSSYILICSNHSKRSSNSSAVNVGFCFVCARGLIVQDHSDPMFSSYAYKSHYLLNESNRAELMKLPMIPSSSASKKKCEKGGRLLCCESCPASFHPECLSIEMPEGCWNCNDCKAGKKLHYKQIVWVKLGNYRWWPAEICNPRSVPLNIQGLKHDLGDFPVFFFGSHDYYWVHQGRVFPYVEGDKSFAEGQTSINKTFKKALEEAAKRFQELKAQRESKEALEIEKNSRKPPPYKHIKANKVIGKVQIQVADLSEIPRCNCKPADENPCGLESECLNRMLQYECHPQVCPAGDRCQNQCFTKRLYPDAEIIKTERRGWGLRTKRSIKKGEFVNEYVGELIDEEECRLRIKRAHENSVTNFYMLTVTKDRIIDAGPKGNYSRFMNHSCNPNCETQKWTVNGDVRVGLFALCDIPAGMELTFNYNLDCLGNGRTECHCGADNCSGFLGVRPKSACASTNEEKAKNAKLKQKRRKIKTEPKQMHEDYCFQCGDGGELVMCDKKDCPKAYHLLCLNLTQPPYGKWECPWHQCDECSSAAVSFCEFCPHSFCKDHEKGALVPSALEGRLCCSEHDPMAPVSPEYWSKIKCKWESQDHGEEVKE
Description: as §1

PRMT5/MEP50 = PRMT5/MEP50 (Homo sapiens, UniProt O14744); assay: HMT panel selectivity: PRMT5/MEP50
Sequence of PRMT5/MEP50 (O14744 whole entry, species assumed): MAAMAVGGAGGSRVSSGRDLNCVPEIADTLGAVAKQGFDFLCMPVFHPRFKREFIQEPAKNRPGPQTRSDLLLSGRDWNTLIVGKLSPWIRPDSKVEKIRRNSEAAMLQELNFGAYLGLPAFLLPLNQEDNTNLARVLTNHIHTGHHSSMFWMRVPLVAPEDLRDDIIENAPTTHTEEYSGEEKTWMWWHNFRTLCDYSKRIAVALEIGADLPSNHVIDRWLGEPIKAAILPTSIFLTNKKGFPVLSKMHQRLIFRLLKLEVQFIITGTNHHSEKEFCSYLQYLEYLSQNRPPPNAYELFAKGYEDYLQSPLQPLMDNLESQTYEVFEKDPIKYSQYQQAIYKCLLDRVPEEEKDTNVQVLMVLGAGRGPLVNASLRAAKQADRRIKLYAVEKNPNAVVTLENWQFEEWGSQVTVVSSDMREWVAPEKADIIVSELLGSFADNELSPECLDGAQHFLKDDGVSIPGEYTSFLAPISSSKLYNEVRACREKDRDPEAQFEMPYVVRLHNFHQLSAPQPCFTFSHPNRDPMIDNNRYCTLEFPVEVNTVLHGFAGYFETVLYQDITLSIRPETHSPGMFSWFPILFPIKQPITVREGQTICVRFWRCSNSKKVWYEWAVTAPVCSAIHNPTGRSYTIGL
Sequence of PRMT5/MEP50 (Q9BQA1 whole entry partner, species assumed): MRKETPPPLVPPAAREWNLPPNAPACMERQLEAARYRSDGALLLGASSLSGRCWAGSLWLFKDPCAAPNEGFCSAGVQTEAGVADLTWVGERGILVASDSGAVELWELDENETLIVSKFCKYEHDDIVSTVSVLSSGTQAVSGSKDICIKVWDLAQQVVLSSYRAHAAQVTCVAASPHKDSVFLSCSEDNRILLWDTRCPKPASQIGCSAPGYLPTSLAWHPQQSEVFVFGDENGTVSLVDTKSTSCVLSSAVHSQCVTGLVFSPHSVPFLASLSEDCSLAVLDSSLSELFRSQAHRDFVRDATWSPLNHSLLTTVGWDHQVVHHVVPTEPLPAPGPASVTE
Description: as §1

SMILES	pIC50 (NSD2)	pIC50 (NSD3)	pIC50 (PRMT5/MEP50)
COc1cc(-c2cc3n(c(=N)c2C#N)CCc2cc4c(cc2-3)OCO4)ccc1OC(C)C [EED396]	< 4.00	< 4.00	< 4.00
N#Cc1c2c(c3nncn3c1NCc1ccco1)CN(Cc1ccccc1)CC2 [EED162]	< 4.00	< 4.00	< 4.00
COc1cccc(CC2CC3Cc4c(cccc4OC)CC3N(C)C2)c1 (stereo not drawn) [EED210]	< 4.00	< 4.00	< 4.00

The remaining lines, values ahead:

pIC50 (NSD2)	pIC50 (NSD3)	pIC50 (PRMT5/MEP50)	SMILES
< 4.00	< 4.00	< 4.00	COc1ccccc1CN1CC(c2cn(C)c3ccccc23)C(N(C)C)C1 (stereo not drawn) [EED709]
< 4.00	< 4.00	< 4.00	Cc1cc(C)n(-c2cc(N3CCc4ccccc4C3)ccc2[N+](=O)[O-])n1 [EED666]
